One data set can be described thus: in vivo. The note with it: male, Beagle, dog, plasma, po, 10 mg/kg.
For data set [1] the following is noted: dog, oral, equivalent to 10 mg/kg nimesulide; mean of 4 dogs; computer fitting (TOP FIT) of plasma levels.
Experimental: (§1) Plasma kinetics were carried out in dog after oral administration of equivalent dosages of nimesulide and inclusion compound nimesulide -β-cyclodextrin according to a crossover scheme. Four male Beagle of body weight between 12.8 and 13.9 kg, fasted for at least 17 hours, were orally administered the following preparations: • A) nimesulide at the dose of 10 mg/kg • B) inclusion compound nimesulide -β-cyclodextrin (molar ratio 1 : 1) at the dose of 46.84 mg/Kg, corresponding to 10 mg/kg of nimesulide.
(§2) The preparations were administered in gelatine capsule after a "wash-out" period of 10 days.
(§3) The blood samples from dogs were collected in heparinized tubes after 1, 2, 3, 4, 5, 6, 8, 24, 28, 32, 48 and 52 hours from the administration of the two preparations. The relative plasma samples were obtained by centrifugation for 15 minutes at 3000 rpm.
(§4) The plasma levels of nimesulide were determined by HPLC with UV detection according to the following procedure: aliquots of plasma up to 2.5 ml were adjusted to 3.5 ml with distilled water and acidified with 1.0 ml of N hydrochloric acid and poured on to a glass column (18 mm i.d. 220 mm of lenght) containing 15 ml of Extralat® Merck. After 15 minutes nimesulide was eluted with two aliquotes of 7.5 ml of dichloromethane containing 5% of methanol. The eluate was evaporated to dryness under reduced pressure and the residue was taken up with 200 µl of 2.5 µg/ml solution of butilhydroxyanisole as internal standard. A suitable amount was therefore injected into a column by using the following chromatographic conditions: • Column RPC₈, 5 µm, 250 x 3 mm i.d. Supelco; • Mobile phase : acetonitrile + water containing 80 mg/l of EDTA in the ratio V/V 37.5 and 62.5 respectively; • Flow rate : 1.0 ml/min. • λ of detection: 230 nm
(§5) The parameters of AUC. Cmax and Tmax were calculated by the plasma levels of nimesulide using a computer fitting system with TOP FIT package and the results were statistically evaluated by the ANOVA TWO WAYS procedure.

This is an account of results in EP0534995B1, “INCLUSION COMPOUNDS OF NIMESULIDE WITH CYCLODEXTRINS” (BOEHRINGER INGELHEIM ITALIA S.p.A., priority 1990, dated 1991).

Experimental for in vivo: as §1, §2, §3, §4, §5

For orientation: AUC(0-t) means exposure summed from dosing to a finite time, without extrapolation to infinity. A higher AUC(0-t) goes with high exposure. As a reminder, the Cmax is the peak of the concentration-time curve. In the data set “in vivo”, `CS(=O)(=O)Nc1ccc([N+](=O)[O-])cc1Oc1ccccc1` [Preparation A, 4-nitro-2-phenoxy-methansulfonanilide] registered an AUC(0-t) of 165 µg·h/mL and a Cmax of 12100 ng/mL. Besides, the TCmax in data set [1] worked out at 4.4 h.
